Data: paper PMC6327999, “Hydroxyl-substituted double Schiff-base condensed 4-piperidone/cyclohexanones as potential anticancer agents with biological evaluation” (Journal of Enzyme Inhibition and Medicinal Chemistry, 2019)

system: human gastric adenocarcinoma cells (SGC7901); assay: Cytotoxicity, MTT assay, SGC7901; type: cell-based; conditions: Homo sapiens, SGC-7901; MTT, 24 hours
Description: (§1) Compounds 2a–d, 3a–e, 4a–e, 5a–d, and 6a–c were screened against human neoplastic cell lines such as human lung carcinoma cells (A549), human gastric adenocarcinoma cells (SGC7901), human cervical carcinoma cells (HeLa), human liver hepatocellular carcinoma cell line (Hepg2), human chronic myelogenous leukemia cell line (K562), human acute mononuclear granulocyte leukemia (THP-1), human normal heptical cell line (LO2) (Table 1) using modified MTT assay (3-(4,5-dimethyl-2-thiazolyl)-2,5-diphenyl-2-H-tetrazolium bromide, MTT, Dojindo Laboratories, Tokyo, Japan). All cell lines were maintained at 37 °C in a humidified 5% CO2 and 95% air atmosphere. The HePG2 cell lines were cultured in DMEM containing 10% fetal bovine serum. Other cell lines were grown in medium 1640 and supplemented with 10% fetal bovine serum. […] Controls were prepared with 0.1% DMSO (v/v) only. The cells were seeded in a 96-well plate in 200 µL medium per well at a density of 1 × 10^4 cells/well for 24 hours. The cells were treated with serial concentrations of compound and incubated for 24 hours. Cells with only culture media were used as control. After the media was removed, 20 µL of MTT (5 mg/mL) was added then the plates were incubated for 4 hours at 37 °C in cell culture incubator. The MTT containing media were removed and then 150 µL of DMSO was added to dissolve the dark-blue formazan crystals. The optical density (OD) was measured by a multi-well plate reader (TECAN, Männedorf, Switzerland) at 570 nm. The results are expressed as a decrease in the cell viability (%) in comparison to untreated controls. The concentration of each compound was examined in triplicate, and the IC50 values are expressed in Table 1. The concentrations of the compounds were 50, 20, 10, 5, 2.5, 1, 0.5, 0.1, 0.05 and 0.01 µg/mL. Doxorubicin (DOX) and Curcumin were used as positive controls. […] The concentrations of curcumin used were 100, 50, 25, 12.5, 6.25, 3.125, 1, 0.5 and 0.1 µg/mL.

Compound | IC50 [µM]
Nc1cccc(/C=C2\CCC/C(=C\c3cccc(N)c3)C2=O)c1 [2a, (2E,6E)-2,6-bis(3-aminobenzylidene)cyclohexanone] | 9.4 ± 0.2
CN1C/C(=C\c2cc(/N=C/c3cc(O)ccc3O)ccc2F)C(=O)/C(=C/c2cc(/N=C/c3cc(O)ccc3O)ccc2F)C1 [6b] | 2.6 ± 0.1
CN1C/C(=C\c2cccc(/N=C/c3cc(F)ccc3O)c2)C(=O)/C(=C/c2cccc(/N=C/c3cc(F)ccc3O)c2)C1 [4b] | 1.4 ± 0.2

same assay, conditions: quotient of the IC50 values towards nonmalignant LO2 cells

Compound | SGC7901 SI
CN1C/C(=C\c2cc(/N=C/c3cc(O)ccc3O)ccc2F)C(=O)/C(=C/c2cc(/N=C/c3cc(O)ccc3O)ccc2F)C1 [6b] | 8.3
CN1C/C(=C\c2cccc(/N=C/c3cc(F)ccc3O)c2)C(=O)/C(=C/c2cccc(/N=C/c3cc(F)ccc3O)c2)C1 [4b] | 10.0

system: human acute mononuclear granulocyte leukemia (THP-1); assay: Cytotoxicity, MTT assay, THP-1; type: cell-based; conditions: Homo sapiens, THP-1; MTT, 24 hours
Description: as §1

Compound | IC50 [µM]
Nc1cccc(/C=C2\CCC/C(=C\c3cccc(N)c3)C2=O)c1 [2a, (2E,6E)-2,6-bis(3-aminobenzylidene)cyclohexanone] | 6.2 ± 1.1
CN1C/C(=C\c2cc(/N=C/c3cc(O)ccc3O)ccc2F)C(=O)/C(=C/c2cc(/N=C/c3cc(O)ccc3O)ccc2F)C1 [6b] | 1.8 ± 0.1
CN1C/C(=C\c2cccc(/N=C/c3cc(F)ccc3O)c2)C(=O)/C(=C/c2cccc(/N=C/c3cc(F)ccc3O)c2)C1 [4b] | 1.2 ± 0.03

same assay, conditions: quotient of the IC50 values towards nonmalignant LO2 cells

Compound | THP-1 SI
Nc1cccc(/C=C2\CCC/C(=C\c3cccc(N)c3)C2=O)c1 [2a, (2E,6E)-2,6-bis(3-aminobenzylidene)cyclohexanone] | 4.5
CN1C/C(=C\c2cc(/N=C/c3cc(O)ccc3O)ccc2F)C(=O)/C(=C/c2cc(/N=C/c3cc(O)ccc3O)ccc2F)C1 [6b] | 12.0
CN1C/C(=C\c2cccc(/N=C/c3cc(F)ccc3O)c2)C(=O)/C(=C/c2cccc(/N=C/c3cc(F)ccc3O)c2)C1 [4b] | 11.5

system: human cervical carcinoma cells (HeLa); assay: Cytotoxicity, MTT assay, HeLa; type: cell-based; conditions: Homo sapiens, HeLa; MTT, 24 hours
Description: as §1

Compound | IC50 [µM]
Nc1cccc(/C=C2\CCC/C(=C\c3cccc(N)c3)C2=O)c1 [2a, (2E,6E)-2,6-bis(3-aminobenzylidene)cyclohexanone] | 25.9 ± 3.7
CN1C/C(=C\c2cc(/N=C/c3cc(O)ccc3O)ccc2F)C(=O)/C(=C/c2cc(/N=C/c3cc(O)ccc3O)ccc2F)C1 [6b] | 3.4 ± 0.4
CN1C/C(=C\c2cccc(/N=C/c3cc(F)ccc3O)c2)C(=O)/C(=C/c2cccc(/N=C/c3cc(F)ccc3O)c2)C1 [4b] | 3.5 ± 0.1

same assay, conditions: quotient of the IC50 values towards nonmalignant LO2 cells

Compound | HeLa SI
Nc1cccc(/C=C2\CCC/C(=C\c3cccc(N)c3)C2=O)c1 [2a, (2E,6E)-2,6-bis(3-aminobenzylidene)cyclohexanone] | 1.1
CN1C/C(=C\c2cc(/N=C/c3cc(O)ccc3O)ccc2F)C(=O)/C(=C/c2cc(/N=C/c3cc(O)ccc3O)ccc2F)C1 [6b] | 6.2
CN1C/C(=C\c2cccc(/N=C/c3cc(F)ccc3O)c2)C(=O)/C(=C/c2cccc(/N=C/c3cc(F)ccc3O)c2)C1 [4b] | 4.0

system: human lung carcinoma cells (A549); assay: Cytotoxicity, MTT assay, A549; type: cell-based; conditions: Homo sapiens, A549; MTT, 24 hours
Description: as §1

Compound | IC50 [µM]
Nc1cccc(/C=C2\CCC/C(=C\c3cccc(N)c3)C2=O)c1 [2a, (2E,6E)-2,6-bis(3-aminobenzylidene)cyclohexanone] | 7.9 ± 0.1
CN1C/C(=C\c2cc(/N=C/c3cc(O)ccc3O)ccc2F)C(=O)/C(=C/c2cc(/N=C/c3cc(O)ccc3O)ccc2F)C1 [6b] | 2.3 ± 0.1
CN1C/C(=C\c2cccc(/N=C/c3cc(F)ccc3O)c2)C(=O)/C(=C/c2cccc(/N=C/c3cc(F)ccc3O)c2)C1 [4b] | 4.1 ± 0.4

same assay, conditions: quotient of the IC50 values towards nonmalignant LO2 cells

Compound | A549 SI
Nc1cccc(/C=C2\CCC/C(=C\c3cccc(N)c3)C2=O)c1 [2a, (2E,6E)-2,6-bis(3-aminobenzylidene)cyclohexanone] | 3.6
CN1C/C(=C\c2cc(/N=C/c3cc(O)ccc3O)ccc2F)C(=O)/C(=C/c2cc(/N=C/c3cc(O)ccc3O)ccc2F)C1 [6b] | 9.1
CN1C/C(=C\c2cccc(/N=C/c3cc(F)ccc3O)c2)C(=O)/C(=C/c2cccc(/N=C/c3cc(F)ccc3O)c2)C1 [4b] | 3.4

system: human liver hepatocellular carcinoma cell line (Hepg2); assay: Cytotoxicity, MTT assay, HePG2; type: cell-based; conditions: Homo sapiens, HepG2; MTT, 24 hours
Description: as §1, with “µg/mL.” for “µg/mL. Doxorubicin (DOX) and Curcumin were used as positive controls.”

Compound | IC50 [µM]
Nc1cccc(/C=C2\CCC/C(=C\c3cccc(N)c3)C2=O)c1 [2a, (2E,6E)-2,6-bis(3-aminobenzylidene)cyclohexanone] | 10.7 ± 0.5
CN1C/C(=C\c2cc(/N=C/c3cc(O)ccc3O)ccc2F)C(=O)/C(=C/c2cc(/N=C/c3cc(O)ccc3O)ccc2F)C1 [6b] | 2.7 ± 0.2
CN1C/C(=C\c2cccc(/N=C/c3cc(F)ccc3O)c2)C(=O)/C(=C/c2cccc(/N=C/c3cc(F)ccc3O)c2)C1 [4b] | 1.07 ± 0.1

same assay, conditions: quotient of the IC50 values towards nonmalignant LO2 cells

Compound | HePG2 SI
Nc1cccc(/C=C2\CCC/C(=C\c3cccc(N)c3)C2=O)c1 [2a, (2E,6E)-2,6-bis(3-aminobenzylidene)cyclohexanone] | 2.6
CN1C/C(=C\c2cc(/N=C/c3cc(O)ccc3O)ccc2F)C(=O)/C(=C/c2cc(/N=C/c3cc(O)ccc3O)ccc2F)C1 [6b] | 7.8
CN1C/C(=C\c2cccc(/N=C/c3cc(F)ccc3O)c2)C(=O)/C(=C/c2cccc(/N=C/c3cc(F)ccc3O)c2)C1 [4b] | 12.9

system: human carcinoma cell lines A549, SGC7901, HePG2, HeLa, K562, THP-1; assay: Cytotoxicity, MTT assay, panel of human carcinoma cell lines (average / overall); type: cell-based; conditions: Homo sapiens; average over the six carcinoma cell lines; read-out: Ave IC50
Description: as §1
The cytotoxicity activities against human carcinoma cell lines A549, SGC7901, HePG2, HeLa, K562, THP-1 and cytotoxicity toward LO2 cell lines were evaluated by MTT method. DOX and curcumin were used as positive control. The selectivity index (SI) is the quotient of the IC50 values towards nonmalignant LO2 cells. […] Especially for 4a–e, 5a–d, and 6a–c, this ratio can reach about 92%.

Compound | IC50 [µM]
Nc1cccc(/C=C2\CCC/C(=C\c3cccc(N)c3)C2=O)c1 [2a, (2E,6E)-2,6-bis(3-aminobenzylidene)cyclohexanone] | 13.7
CN1C/C(=C\c2cc(/N=C/c3cc(O)ccc3O)ccc2F)C(=O)/C(=C/c2cc(/N=C/c3cc(O)ccc3O)ccc2F)C1 [6b] | 3
CN1C/C(=C\c2cccc(/N=C/c3cc(F)ccc3O)c2)C(=O)/C(=C/c2cccc(/N=C/c3cc(F)ccc3O)c2)C1 [4b] | 2.2

same assay, conditions: Homo sapiens; statement for all experimental carcinoma cell lines; read-out: IC50 values against human carcinoma cell lines

Compound | IC50 [µM]
Nc1cccc(/C=C2\CCC/C(=C\c3cccc(N)c3)C2=O)c1 [2a, (2E,6E)-2,6-bis(3-aminobenzylidene)cyclohexanone] | > 5

same assay, conditions: average over the six carcinoma cell lines

Compound | Ave SI
Nc1cccc(/C=C2\CCC/C(=C\c3cccc(N)c3)C2=O)c1 [2a, (2E,6E)-2,6-bis(3-aminobenzylidene)cyclohexanone] | 2.7
CN1C/C(=C\c2cc(/N=C/c3cc(O)ccc3O)ccc2F)C(=O)/C(=C/c2cc(/N=C/c3cc(O)ccc3O)ccc2F)C1 [6b] | 7.9
CN1C/C(=C\c2cccc(/N=C/c3cc(F)ccc3O)c2)C(=O)/C(=C/c2cccc(/N=C/c3cc(F)ccc3O)c2)C1 [4b] | 8.0

system: human chronic myelogenous leukemia cell line (K562); assay: Cytotoxicity, MTT assay, K562; type: cell-based; conditions: Homo sapiens, K562; MTT, 24 hours
Description: as §1

Compound | IC50 [µM]
Nc1cccc(/C=C2\CCC/C(=C\c3cccc(N)c3)C2=O)c1 [2a, (2E,6E)-2,6-bis(3-aminobenzylidene)cyclohexanone] | 22.2 ± 1.9
CN1C/C(=C\c2cc(/N=C/c3cc(O)ccc3O)ccc2F)C(=O)/C(=C/c2cc(/N=C/c3cc(O)ccc3O)ccc2F)C1 [6b] | 5.1 ± 0.3
CN1C/C(=C\c2cccc(/N=C/c3cc(F)ccc3O)c2)C(=O)/C(=C/c2cccc(/N=C/c3cc(F)ccc3O)c2)C1 [4b] | 2.15 ± 1

same assay, conditions: quotient of the IC50 values towards nonmalignant LO2 cells

Compound | K562 SI
Nc1cccc(/C=C2\CCC/C(=C\c3cccc(N)c3)C2=O)c1 [2a, (2E,6E)-2,6-bis(3-aminobenzylidene)cyclohexanone] | 1.3
CN1C/C(=C\c2cc(/N=C/c3cc(O)ccc3O)ccc2F)C(=O)/C(=C/c2cc(/N=C/c3cc(O)ccc3O)ccc2F)C1 [6b] | 4.2
CN1C/C(=C\c2cccc(/N=C/c3cc(F)ccc3O)c2)C(=O)/C(=C/c2cccc(/N=C/c3cc(F)ccc3O)c2)C1 [4b] | 6.4

system: human normal heptical cell line (LO2); assay: Cytotoxicity, MTT assay, non-malignant LO2; type: cell-based; conditions: 24 hours, non-malignant cells
Description: as §1

Compound | IC50 [µM]
Nc1cccc(/C=C2\CCC/C(=C\c3cccc(N)c3)C2=O)c1 [2a, (2E,6E)-2,6-bis(3-aminobenzylidene)cyclohexanone] | 28.2 ± 3.9
CN1C/C(=C\c2cc(/N=C/c3cc(O)ccc3O)ccc2F)C(=O)/C(=C/c2cc(/N=C/c3cc(O)ccc3O)ccc2F)C1 [6b] | 21.3 ± 2
CN1C/C(=C\c2cccc(/N=C/c3cc(F)ccc3O)c2)C(=O)/C(=C/c2cccc(/N=C/c3cc(F)ccc3O)c2)C1 [4b] | 13.8 ± 0.1
